Experimental data: patent US20180133221A1, “ADMINISTRATION OF UBIQUITIN-ACTIVATING ENZYME INHIBITOR AND CHEMOTHERAPEUTIC AGENTS” (Millennium Pharmaceuticals, Inc., priority 2014, published 2018)

What was measured:
[1] = test system: PHTX-132Lu non-small cell lung xenograft
Description: The PHTX-132Lu non-small cell lung xenograft model was established from a patient-derived tumor collected during surgery from a person with lung cancer (Poorly Differentiated Adenocarcinoma). PHTX-132Lu tumor fragments (approximately 2×2×3 mm^3) are implanted into the subcutaneous space in the right dorsal flank of female CB-17 SCID mice (age 10 weeks, Charles River Laboratory, Wilmington, Mass.) using a 13-gauge trocar. When the mean tumor volume reached approximately 220 mm^3, the animals were randomized into 12 treatment groups (n=5/group).
(§1) Carboplatin (Teva Pharmaceuticals) is formulated in 0.9% saline and administered by IP injection once weekly (QW) at 25, 50, 60, and 75 mg/kg. The once weekly schedule is also described as every 7 days (Q7D).
(§2) Compound 1 [((1R,2R,3S,4R)-2,3-dihydroxy-4-(2-(3-(trifluoromethylthio)-phenyl)pyrazolo[1,5-a]pyrimidin-7-ylamino)cyclopentyl)methyl sulfamate] is formulated in 10-20% HPbCD in sterile water and administered intravenously (IV) or subcutaneously (SC) on a BIW (twice/week schedule; Monday and Thursday or Tuesday and Friday) for either 2-4 weeks.
(§3) Tumors were measured twice weekly using vernier calipers. Tumor volumes were calculated using the standard formula V=W^2×L/2,). When mean tumor volumes reached approximately 200 mm^3 for PHTX-24C, 220 mm^3 for PHTX-Lu132, 150 mm^3 for CTG-0256, 260 mm^3 for CTG-0486, 185 mm^3 for PHTX-17C, 260 mm^3 for CTG-0165, 150 mm^3 for PHTX-14B in the study of Compound 1 and paclitaxel, 180 mm^3 for PHTX-14B in the study of Compound 1 and docetaxel, 200 mm^3 for SKOV-3, 220 mm^3 for PHTX-02B in the study of Compound 1 and docetaxel, 250 mm^3 for PHTX-02B in the study of Compound 1 and paclitaxel, 195 mm^3 for CTG-0159, 180 mm^3 for CTG-0012 or 150 mm^3 for Calu-6, mice were randomized into groups of n=5-7/arm as described in the tables below, and injected with vehicle, Compound 1 or agents (docetaxel, paclitaxel, oxaliplatin, cisplatin or carboplatin), or the combination of Compound 1 plus one of the agents, at various doses and schedules as described in tables below. Tumor size and body weight were measured approximately twice a week for the duration of the study. Mice are euthanized when their tumor volume reached 10% of their body weight, or when the average tumor volume of a treatment or control group reached approximately 2000 mm^3. Tumor growth continued to be monitored after the dosing period in some studies. Average tumor volume is reported as a function of time for selected arms of selected studies in the Figures.
(§4) Measurements from day 0 to day 14, day 19, day 21, or day 28 are analyzed as specified in Tables below. All tumor volumes have a value of 1 added to them before log10 transformation. For each animal, the log tumor volume at day 0 is subtracted from the log tumor volume on the subsequent days. This difference vs. time is used to calculate an area under the curve (AUC) for each animal using the trapezoid rule. […] The synergy score for the combination of agents A and B is defined as
(§5) 100*(mean(AUCAB)−mean(AUCA)−mean(AUCB)+mean(AUCctl))/mean(AUCctl):
(§6) where AUCAB, AUCA, AUCB, and AUCctl are the AUC values for animals in the combination group, the A group, the B group, and the control group, respectively. The standard error of the synergy score is computed based on the variation in the AUC values among the animals. […] If the P-value is above 0.05, then the combination is considered to be additive. If the P-value is below 0.05, and the synergy score is less than zero, then the combination is considered to be synergistic.

[2] = test system: SKOV-3 ovarian cell-line derived xenograft; assay: SKOV-3 xenograft model, Compound 1 and carboplatin; type: in vivo, nude mice; conditions: for Tumor Volume Day 14: in mm³ (unit assumed)
Protocol: SKOV-3 is an ovarian cell-line derived xenograft. Ten week old female nude mice (Taconic Farms, Inc) were inoculated subcutaneously in flank (cell suspension) with 4.0×10^6 SKOV-3 cells suspended in serum free DMEM+Matrigel. When the mean tumor volume reached approximately 200 mm^3, the animals were randomized into 12 treatment groups (n=5/group).
as §1, §2, §3, §4, §5, §6

[3] = test system: CTG-0486 human ovarian xenograft; type: in vivo
Description: The CTG-0486 model of human ovarian xenograft model was established from a patient-derived tumor collected during surgery from a person with ovarian cancer (serous adenocarcinoma, metastases to the small bowel). CTG-0486 tumor fragments (approximately 2×2×3 mm^3) are implanted into the subcutaneous space in the right dorsal flank of female Mus musculus/nu/nu mice (age 6-9 weeks, Harlan Laboratories, Madison, Wis., USA) using a 13-gauge trocar needle. When the mean tumor volume reached approximately 260 mm3, the animals were randomized into 8 treatment groups (n=5/group).
[…] The once weekly schedule is also described as every 7 days (Q7D).
as §2, §3, §4, §5, §6

[4] = test system: CTG-0256 human ovarian xenograft; assay: CTG-0256 xenograft model, Compound 1 and carboplatin; type: in vivo, Mus musculus/nu/nu mice
Description: The CTG-0256 model of human ovarian xenograft model was established from a patient-derived tumor collected during surgery at primary site from a person with ovarian cancer (serous adenocarcinoma with resistant response to carboplatin or paclitaxel). CTG-0256 tumor fragments (approximately 2×2×3 mm^3) were implanted into the subcutaneous space in the right dorsal flank of female Mus musculus/nu/nu mice (age 6-9 weeks, Harlan Laboratories, Madison, Wis.) using a 13-gauge trocar. When the mean tumor volume reached approximately 150 mm^3, the animals were randomized into 7 treatment groups (n=7/group).
as §1, §2, §3, §4, §5, §6

[5] = test system: CTG-0165 human lung NSCLC xenograft; assay: CTG-0165 xenograft model, Compound 1 and cisplatin; type: in vivo, Mus musculus/nu/nu mice
Protocol: CTG-0165 tumor fragments (approximately 2×2×3 mm^3) were implanted into the subcutaneous space in the right dorsal flank of female Mus musculus/nu/nu mice (age 6-9 weeks, Harlan Laboratories, Madison, Wis., USA) using a 13-gauge trocar. When the mean tumor volume reached approximately 260 mm^3, the animals were randomized into 8 treatment groups (n=5/group).
Cisplatin (Teva Pharmaceuticals) is formulated in 0.9% saline and administered by IV injection once weekly (QW) at 7.5 mg/kg. The once weekly schedule is also described as every 7 days (Q7D).
as §2, §3, §4, §5, §6

[6] = test system: CTG-0159 human lung NSCLC xenograft; assay: CTG-0159 xenograft model, Compound 1 and docetaxel; type: in vivo, Mus musculus/nu/nu mice; conditions: 10 mg/kg docetaxel QWx3 IV; in mm³ (unit assumed)
Protocol: (§7) Docetaxel (Henry Schein, Inc., Pittsburgh Pa.) is formulated in 0.9% saline and administered by intravenous injection (IV) once weekly (QW) at 5 mg/kg or 10 mg/kg. […] Tumors were measured twice weekly using vernier calipers.

[7] = test system: PHTX-02B breast xenograft; assay: PHTX-02B xenograft model, Compound 1 and docetaxel; type: in vivo, SCID-NOD mice; conditions: for Tumor Volume Day 21: in mm³ (unit assumed)
Protocol: as §7

[8] = test system: PHTX-14B breast xenograft; assay: PHTX-14B xenograft model, Compound 1 and docetaxel; type: in vivo, nude mice; conditions: for Tumor Volume Day 28: in mm³ (unit assumed)
Protocol: as §7

[9] = test system: Calu-6 non-small cell lung cancer xenograft; assay: Calu-6 xenograft model, Compound 1 and docetaxel; type: in vivo, nude mice; conditions: for Tumor Volume Day 21: in mm³ (unit assumed)
Protocol: Calu-6 is a non-small cell lung cancer cell-lined derived xenograft model. Nine week old female nude mice (Taconic Farms, Inc) were inoculated subcutaneously in the flank (cell suspension) with 4.0×10^6 Calu-6 cells suspended in serum free MEM. […] Docetaxel (Henry Schein, Inc., Pittsburgh Pa.) is formulated in 0.9% saline and administered by intravenous injection (IV) once weekly (QW) at 5 mg/kg or 10 mg/kg. […] Tumors were measured twice weekly using vernier calipers.

[10] = test system: PHTX-02B breast xenograft; assay: PHTX-02B xenograft model, Compound 1 and paclitaxel; type: in vivo, SCID-NOD mice; conditions: for Tumor Volume Day 19: in mm³ (unit assumed)
Protocol: (§8) Paclitaxel (Bristol-Myers Squibb Company) is formulated in 0.9% saline and administered by intravenous injection (IV) on every 4 days (Q4D) or once weekly (QW) at 10 and 20 mg/kg. […] Tumors were measured twice weekly using vernier calipers.

[11] = test system: PHTX-14B breast xenograft; assay: PHTX-14B xenograft model, Compound 1 and paclitaxel; type: in vivo, Balb/c Nude Mice; conditions: for Tumor Volume Day 28: in mm³ (unit assumed)
Protocol: as §8

[12] = test system: CTG-0012 human primary triple negative breast cancer model; assay: CTG-0012 xenograft model, Compound 1 and paclitaxel; type: in vivo, Mus musculus/nu/nu mice
Protocol: as §8

[13] = single agent docetaxel 5 and 10 mg/kg IV QW
[14] = single agent paclitaxel IV at 10 mg/kg Q4D for 3 weeks

SMILES: N.N.O=C([O-])C1(C(=O)[O-])CCC1.[Pt+2] [carboplatin, reference compound]
- Tumor Volume Day 21 ([1]; 25 mg/kg carboplatin Q7Dx3 IP, in mm³ (unit assumed)): 727
- tolerability ([1]; 75 mg/kg carboplatin Q7D×3 as single agent (study group 2)): not tolerated
- anti-tumor activity compared to vehicle control ([1]; single agent carboplatin 25 mg/kg IP Q7D): modest anti-tumor activity
- Tumor Volume Day 14 ([2]; 25 mg/kg carboplatin Q7Dx2 IP): 932.8
- Tumor Volume Day 14 ([2]; 75 mg/kg carboplatin Q7Dx2 IP): 798.5
- anti-tumor activity compared to vehicle control ([2]; single agent carboplatin 25 and 75 mg/kg IP Q7D): modest anti-tumor activity
- Tumor Volume Day 21 ([3]; 60 mg/kg carboplatin Q7Dx3 IV, in mm³ (unit assumed)): 400.6
- anti-tumor activity compared to vehicle control ([3]; single agent carboplatin IP at 60 mg/kg Q7D for 3 weeks): modest to strong anti-tumor activity
- Volume Tumor Day 14 ([4]; 50 mg/kg carboplatin Q7Dx2 IP, in mm³ (unit assumed)): 1898.1
- anti-tumor activity compared to vehicle control ([4]; single agent carboplatin IP at 50 mg/kg Q7D): modest to weak anti-tumor activity

SMILES: N.N.[Cl][Pt][Cl] [cisplatin, reference compound]
- Tumor Volume Day 21 ([5]; 7.5 mg/kg cisplatin QWx3 IV, in mm³ (unit assumed)): 489.3
- anti-tumor activity compared to vehicle control ([5]; single agent cisplatin 7.5 mg/kg Q7D): modest to weak anti-tumor activity

SMILES: CC(=O)O[C@@]12CO[C@@H]1C[C@H](O)[C@@]1(C)C(=O)[C@H](O)C3=C(C)[C@@H](OC(=O)[C@H](O)[C@@H](NC(=O)OC(C)(C)C)c4ccccc4)C[C@@](O)([C@@H](OC(=O)c4ccccc4)[C@H]21)C3(C)C [docetaxel, reference compound]
- Tumor Volume Day 21 [6]: 103.2
- Tumor Volume Day 21 ([7]; 5 mg/kg docetaxel Q7Dx3 IV): 492.3
- Tumor Volume Day 21 ([7]; 10 mg/kg docetaxel Q7Dx3 IV): 232.2
- tumor growth compared to the vehicle control group [7, 13]: inhibited tumor growth
- Tumor Volume Day 28 ([8]; 5 mg/kg docetaxel Q7Dx3 IV): 590.4
- Tumor Volume Day 28 ([8]; 10 mg/kg docetaxel Q7Dx3 IV): 195.5
- tumor growth compared to the vehicle control group [8, 13]: inhibited tumor growth
- Tumor Volume Day 21 ([9]; 5 mg/kg docetaxel Q7Dx3 IV): 743.7
- Tumor Volume Day 21 ([9]; 10 mg/kg docetaxel Q7Dx3 IV): 882.6
- anti-tumor responses compared to the vehicle control [9, 13]: modest anti-tumor responses

SMILES: CC(=O)O[C@H]1C(=O)[C@@]2(C)[C@H]([C@H](OC(=O)c3ccccc3)[C@]3(O)C[C@H](OC(=O)[C@H](O)[C@@H](NC(=O)c4ccccc4)c4ccccc4)C(C)=C1C3(C)C)[C@]1(OC(C)=O)CO[C@@H]1C[C@@H]2O [paclitaxel, reference compound]
- Tumor Volume Day 19 ([10]; 10 mg/kg paclitaxel Q4Dx3 IV): 1093.5
- Tumor Volume Day 19 ([10]; 20 mg/kg paclitaxel Q4Dx3 IV): 245.2
- anti-tumor activity ([10]; paclitaxel IV at 20 mg/kg Q4D for 3 weeks): strong anti-tumor activity
- anti-tumor activity compared to vehicle control [10, 14]: minimal to modest anti-tumor activity
- Tumor Volume Day 28 ([11]; 10 mg/kg paclitaxel Q7Dx4 IV): 584.4
- Tumor Volume Day 28 ([11]; 20 mg/kg paclitaxel Q7Dx4 IV): 283.6
- anti-tumor activity ([11]; paclitaxel 20 mg/kg IV Q7D for 4 weeks): strong anti-tumor activity
- anti-tumor activity compared to vehicle control ([11]; single agent paclitaxel 10 mg/kg IV Q7D for 4 weeks): modest anti-tumor activity
- Tumor Volume Day 21 ([12]; 10 mg/kg paclitaxel Q4Dx3 IV, in mm³ (unit assumed)): 731.1
- anti-tumor activity compared to vehicle control [12, 14]: modest to strong anti-tumor activity
